{"source": "patent US11833204B2", "about": "“Visible light-activatable nanoparticles for cancer immunotherapy and use thereof” (KOREA INSTITUTE OF SCIENCE AND TECHNOLOGY, priority 2021, dated 2023)", "key": {"CT26 cells [1]": {"system": "CT26 cells", "assay": "CT26 cell viability (CCK) after visible light irradiation", "type": "cell-based", "details": "CT26, 0-10 μM, 24 h, 671 nm laser 40 mW 250 sec", "description": "After CT26 cells were plated in a 96-well plate at a density of 5×10^3 cells/well, the wells were treated with doxorubicin (DOX) (0, 0.01, 0.1, 1, and or 10 μM), verteporfin (VPF) (0, 0.01, 0.1, 1, and 10 μM), mixtures thereof (DOX+VPF), and the self-assembled nanoparticles (LT-NPs) (0, 0.01, 0.1, 1, and 10 μM). After culture for 24 h, cells were exposed by irradiation with visible light using a 671 nm laser at 40 mW for 250 sec. Then, a cell culture medium containing […] of CCK solution was added to each well. Cells were further cultured for 20 min and the absorbance of the 96-well plate was measured at 450 nm on a VERSAmax™ microplate reader (Molecular Devices Corp., Sunnyvale, Calif.)."}, "[2]": {"assay": "Morphological analysis by transmission electron microscopy in saline", "type": "physicochemical", "details": "1 mg in 1 mL physiological saline", "description": "The self-assembled nanoparticles (LT-NPs) prepared in Example 1, doxorubicin (DOX), and verteporfin (VPF) were used as samples. 1 mg of each sample was mixed with physiological saline (1 mL). […] The self-assembled nanoparticles (LT-NPs) were mixed with cathepsin B (Cat-B) protease (50 μg/mL). The mixture was allowed to react for 24 h."}, "CT26 cells [3]": {"system": "CT26 cells", "assay": "Intracellular behaviour in CT26 cancer cells (confocal microscopy)", "type": "cell-based", "description": "(§1) The following experiment was conducted to evaluate the intracellular behaviors of the self-assembled nanoparticles (LT-NPs). First, 1×10^5 CT26 cells or H9C2 cells were plated in a 35 mm cell culture dish, treated with the self-assembled nanoparticles (LT-NPs, 5 μM) prepared in Example 1, and cultured for 24 h. Thereafter, cells were washed with Dulbecco's PBS (DPBS), fixed in 4% formaldehyde for 10 min, stained with 4′,6-diamidino-2-phenylindole (DAPI) for 5 min, and analyzed with a Leica TCS SP8 confocal microscope (Leica Microsystems GmbH)."}, "[4]": {"assay": "Size analysis of LT-NPs by dynamic light scattering", "type": "physicochemical", "details": "1 mg/mL in saline, DLS", "description": "The self-assembled nanoparticles (LT-NPs) prepared in Example 1 were diluted with saline to a concentration of 1 mg/mL and their particle size was analyzed by dynamic light scattering (DLS; Zetasizer Nano ZS, Malvern Instruments)."}, "H9C2 cells": {"system": "H9C2 cells", "assay": "Intracellular behaviour in H9C2 cardiomyocytes (confocal microscopy)", "type": "cell-based", "details": "H9C2, 5 μM, 24 h", "description": "as §1"}, "CT26 cells [5]": {"system": "CT26 cells", "assay": "Immunogenic cell death: extracellular HSP70 and HMGB1 (Western blotting)", "type": "cell-based", "details": "CT26, 5 μM, 24 h, +L/−L", "description": "First, CT26 cells were plated in 35 mm cell culture dishes at a density of 1×10^5 cells/dish and doxorubicin (DOX) (5 μM), verteporfin (VPF) (5 μM) or the self-assembled nanoparticles (LT-NPs) (5 μM) were added to each dish. After 24-h culture, one half was exposed by irradiation with visible light using a 671 nm laser at 40 mW for 250 sec (+L) and the other half was not irradiated with visible light for comparison (−L). The immunogenic cell death of the self-assembled nanoparticles (LT-NPs) was evaluated using the cells and the cell culture media.\nBefore staining the cells with APC-conjugated CRT antibody, culture media were separated from the cells and the extracellular expression levels of HMGB1 and HSP70 were analyzed by Western blotting.\nEach cell culture medium was treated with RIPA buffer (Cell Signaling Technology) at 4° C. for 30 min and the protein amount of the lysate was analyzed using a Pierce BCA protein assay kit (Thermo Fisher Scientific) according to the manufacturer's protocol. After SDS-PAGE, proteins were transferred to a PVDF membrane (Bio-Rad), which was then treated with Tris-buffered saline (TBS-T) containing 5% skim milk and 0.1% Tween-20. The membrane was incubated with primary antibodies at 4° C. overnight. HSP70 and HMGB1 antibodies were used as the primary antibodies. The membrane was washed with TBS-T and incubated with a secondary antibody at room temperature for 1 h. The membrane was washed with TBS-T, treated with EZ-Western Lumi Pico or Femto reagent (DoGen), and analyzed using Fusion-Solo software (Vilber) according to the manufacturer's protocol to determine band intensities."}, "CT26 cells [6]": {"system": "CT26 cells", "assay": "Apoptosis and necrosis of CT26 cells (Annexin V/PI flow cytometry)", "type": "cell-based", "details": "CT26, visible light", "description": "The degrees of apoptosis and necrosis of cancer cells were quantitatively analyzed to accurately evaluate the anticancer effect of the self-assembled nanoparticles (LT-NPs). First, CT26 cells treated with doxorubicin (DOX), verteporfin (VPF), a mixture of doxorubicin and verteporfin (VPF+DOX) or the self-assembled nanoparticles (LT-NPs) and a laser were prepared as above and treated with 5 μg of Annexin V-FITC and 10 μg of PI solution for 10 min. Then, cells were cultured with a cell fixative for 10 min and further cultured with DAPI for 20 min. The degrees of apoptosis and necrosis were quantitatively analyzed using a flow cytometer (BD FACSVerse, BD bioscience, USA)."}, "[7]": {"system": "spleen cells isolated from Balb/c mice", "assay": "Immune cell activation: treated CT26 cells co-cultured with spleen cells (flow cytometry)", "type": "cell-based", "details": "5 μM, co-culture with spleen cells 24 h; versus doxorubicin or verteporfin alone", "description": "First, CT26 cells were plated in 100-pi cell culture dishes at a density of 1×10^6 cells/dish and cultured for stabilization for 24 h. Doxorubicin (DOX) (5 μM), verteporfin (VPF) […] or the self-assembled nanoparticles (LT-NPs) (5 μM) were added to each dish. After 24-h culture, one half was exposed by irradiation with visible light using a 671 nm laser at 40 mW for 250 sec (+L) and the other half was not irradiated with visible light for comparison (−L). 1×10^6 spleen cells isolated from Balb/c mice were added to each sample, followed by co-culture for 24 h (FIG. 4I).\nThe degrees of differentiation into mature dendritic cells and activated T cells in each sample were analyzed using a flow cytometer."}, "[8]": {"assay": "Stability of LT-NPs in mouse plasma (size by DLS)", "type": "in vitro ADME, BALB/c mice", "details": "BALB/c mouse plasma, 0-72 h", "description": "In this example, the stability of the self-assembled nanoparticles (LT-NPs) in a body fluid was determined. To this end, the self-assembled nanoparticles (LT-NPs) were stored in plasma samples from BALB/c mice for 0, 1, 3, 6, 24, 48, and 72 h and their sizes were measured by dynamic light scattering (DLS)."}}}
{"smiles": "C=CC1=C(C)/C2=C/C3=NC(Cc4[nH]c(c(CCCCC(=O)OC)c4C)CC4N=C(CC1N2)C(C)=C4CCC(=O)N[C@H](Cc1ccccc1)C(=O)N[C@@H](CCCNC(=N)N)C(=O)N[C@H](CCCNC(=N)N)C(=O)NCC(=O)NC1C[C@@H](OC2C[C@](O)(C(=O)CO)Cc4c(O)c5c(c(O)c42)C(=O)c2c(OC)cccc2C5=O)O[C@@H](C)[C@H]1O)[C@@]1(C)C3=CC=C(C(=O)OC)[C@@H]1C(=O)OC", "note": "(stereo partly shown) [LT-NPs, VPF-FRRG(SEQ ID NO: 1)-DOX]", "values": [{"measurement": "cell viability versus doxorubicin and verteporfin", "setting": "CT26 cells [1]", "value": "no significant differences"}, {"measurement": "morphology in physiological saline (TEM)", "setting": "[2]", "value": "dispersed without aggregation in saline"}, {"measurement": "intracellular cleavage into doxorubicin and verteporfin", "setting": "CT26 cells [3]; CT26, 5 μM, 24 h", "value": "cleaved specifically to cancer cells"}, {"measurement": "presence in cells", "setting": "CT26 cells [3]; CT26, 5 μM, 24 h", "value": "observed in both cardiomyocytes (H9C2) and cancer cells (CT26)"}, {"measurement": "intracellular degradation with cathepsin B inhibitor", "setting": "CT26 cells [3]; CT26 treated with cathepsin B inhibitor", "value": "not degraded and remained stable in the cytoplasm"}, {"measurement": "average particle diameter", "setting": "[4]", "value": 87, "unit": "nm"}, {"measurement": "presence in cells", "setting": "H9C2 cells", "value": "observed in both cardiomyocytes (H9C2) and cancer cells (CT26)"}, {"measurement": "state in normal cells", "setting": "H9C2 cells", "value": "in a stable state in normal cells"}, {"measurement": "HMGB-1 release", "setting": "CT26 cells [5]", "value": "significantly higher"}, {"measurement": "HSP70 release", "setting": "CT26 cells [5]", "value": "significantly higher"}, {"measurement": "degree of apoptosis (and necrosis)", "setting": "CT26 cells [6]", "value": "significantly higher than that caused by the conventional drugs"}, {"measurement": "proportions of early apoptosis, late apoptosis and necrosis", "setting": "CT26 cells [6]", "value": "lower proportions of late apoptosis and necrosis and a higher proportion of early apoptosis"}, {"measurement": "degree of apoptosis (and necrosis)", "setting": "CT26 cells [6]; listed as self-assembled nanoparticles", "value": "significantly higher apoptosis and necrosis"}, {"measurement": "degree of differentiation into activated T cells", "setting": "[7]", "value": "significantly higher"}, {"measurement": "degree of differentiation into mature dendritic cells", "setting": "[7]", "value": "significantly higher"}, {"measurement": "time-dependent change in size in mouse plasma", "setting": "[8]", "value": "stably maintained their morphology in the body fluid"}]}
